SMILES strings stand for the structures. Counter-ions that a name gives are not always drawn.

One experiment concerns MDA-MB-231 cells. The experiment in a line: Extracellular lactate production inhibition after 4 h, MDA-MB-231. The conditions noted are these: Homo sapiens, MDA-MB-231.
Consider `COc1ccc(S(=O)(=O)Nc2ccccc2C#Cc2ccc(C(=O)OCc3ccccc3)nc2)c2ncccc12` [Compound 172, benzyl 5-{2-[2-(5-methoxyquinoline-8-sulfonamido)phenyl]ethynyl}pyridine-2-carboxylate], for which the IC50 lay in the range of 10 to 100 nM.
The same measure, in the same setting: for `COc1ccc(S(=O)(=O)Nc2ccccc2C#Cc2ccc(C(=O)O)nc2)c2ccccc12` [Compound 31, 5-{2-[2-(4-methoxynaphthalene-1-sulfonamido)phenyl]ethynyl}pyridine-2-carboxylic acid] the value was 100 to 1000 nM; for `O=C(O)c1ccc(C#Cc2ccccc2S(=O)(=O)Nc2cccc3cccnc23)cn1` [Compound 432, 5-(2-{2-[(quinolin-8-yl)sulfamoyl]phenyl}ethynyl)pyridine-2-carboxylic acid], 1000 to 100000 nM; for `O=C(O)c1ccc(C#Cc2ccccc2NS(=O)(=O)c2cccc3c2OC(F)(F)O3)cc1` [Compound 251, 4-[2-(2,2-Difluoro-benzo[1,3]dioxole-4-sulfonylamino)-phenylethynyl]-benzoic acid], 1000 to 100000 nM.
The same measure, in the same setting: for `O=C(O)c1ccc(C#Cc2ccccc2NS(=O)(=O)c2cnc(Cl)c(Br)c2)cc1` [Compound 34, 4-{2-[2-(5-bromo-6-chloropyridine-3-sulfonamido)phenyl]ethynyl}benzoic acid] the value was 1000 to 100000 nM.
Molecule `COC(=O)c1cc(C)c(C#Cc2cc(F)ccc2NS(=O)(=O)c2ccc(-c3ccccc3)cc2)cn1` [Compound 139, methyl 5-[2-(2-{[1,1′-biphenyl]-4-sulfonamido}-5-fluorophenyl)ethynyl]-4-methylpyridine-2-carboxylate] registered a half-maximal inhibitory concentration (IC50) of 100 to 1000 nM.
On the same count and under the same terms, under `O=C(O)c1ccc(C#Cc2ccccc2NS(=O)(=O)c2ccc(-c3ccccc3)cc2)cn1` [Compound 291, 5-[2-(2-{[1,1′-biphenyl]-4-sulfonamido}phenyl)ethynyl]pyridine-2-carboxylic acid] stands 10 to 100 nM; under `COc1ccc(S(=O)(=O)Nc2ccccc2C#Cc2cnc(C(=O)O)cc2OC)cc1` [Compound 391, 4-Methoxy-5-[2-(4-methoxy-benzenesulfonylamino)-phenylethynyl]-pyridine-2-carboxylic acid], 100 to 1000 nM; under `Cc1ccc(S(=O)(=O)Nc2ccccc2C#Cc2ccc(C(=O)O)nc2)c2ncccc12` [Compound 374, 5-{2-[2-(5-methylquinoline-8-sulfonamido)phenyl]ethynyl}pyridine-2-carboxylic acid], 100 to 1000 nM.
On the same count and under the same terms, under `O=C(O)c1ccc(C#Cc2ccccc2NS(=O)(=O)c2cc(F)cc3cccnc23)cn1` [Compound 294, 5-{2-[2-(6-fluoroquinoline-8-sulfonamido)phenyl]ethynyl}pyridine-2-carboxylic acid] stands 100 to 1000 nM.
On the same count and under the same terms, under `CC(C)Oc1ccc(S(=O)(=O)Nc2ccccc2C#Cc2ccc(C(=O)O)nc2)c2ncccc12` [Compound 339, 5-(2-{2-[5-(propan-2-yloxy)quinoline-8-sulfonamido]phenyl}ethynyl)pyridine-2-carboxylic acid] stands 10 to 100 nM.
`O=C(O)c1ccc(C#Cc2ccccc2S(=O)(=O)Nc2cccc3ccccc23)cn1` [Compound 450, 5-(2-{2-[(naphthalen-1-yl)sulfamoyl]phenyl}ethynyl)pyridine-2-carboxylic acid] showed a 50% inhibitory concentration (IC50) of 1000 to 100000 nM.
On to `O=C(NO)c1ccc(C#Cc2ccccc2NS(=O)(=O)c2ccc3ccccc3c2)cc1` [Compound 16, N-hydroxy-4-{2-[2-(naphthalene-2-sulfonamido)phenyl]ethynyl}benzamide], for which the IC50 was 1000 to 100000 nM.
Still for that read-out and setting: for `O=C(O)c1ccc(C#Cc2ccccc2NS(=O)(=O)c2cccc3c(Cl)cccc23)cn1` [Compound 289, 5-{2-[2-(5-chloronaphthalene-1-sulfonamido)phenyl]ethynyl}pyridine-2-carboxylic acid] the value was 100 to 1000 nM; for `COc1cc(C(=O)O)ncc1C#Cc1ccccc1NS(=O)(=O)c1ccc(OC)c(C)c1C` [Compound 241, 4-methoxy-5-{2-[2-(4-methoxy-2,3-dimethylbenzenesulfonamido)-phenyl]ethynyl}pyridine-2-carboxylic acid], 10 to 100 nM.
`COc1ccc(S(=O)(=O)Nc2cc(F)c(Br)cc2C#Cc2ccc(C(=O)O)nc2)c2ncccc12` [Compound 325, 5-{2-[5-bromo-4-fluoro-2-(5-methoxy-quinoline-8-sulfonamido)phenyl]-ethynyl}pyridine-2-carboxylic acid] came in with an IC50 of 1 to 10 nM.
Same read-out and setting: for `COc1ccc(S(=O)(=O)Nc2ccccc2C#Cc2ccc(C(=O)O)c(C#N)c2)c2ccccc12` [Compound 21, 2-cyano-4-{2-[2-(4-methoxynaphthalene-1-sulfonamido)phenyl]ethynyl}benzoic acid] the value was 1000 to 100000 nM; for `COc1cc(C(=O)O)ncc1C#Cc1cc(Cl)ccc1NS(=O)(=O)c1c(C)ccc2cccnc12` [Compound 361, 5-{2-[5-chloro-2-(7-methylquinoline-8-sulfonamido)phenyl]ethynyl}-4-methoxypyridine-2-carboxylic acid], 1 to 10 nM.
Take `O=C(O)c1ccc(C#Cc2ccccc2NS(=O)(=O)c2cccc3cc(Cl)cnc23)cn1` [Compound 271, 5-[2-(3-Chloro-quinoline-8-sulfonyl-amino)-phenylethynyl]-pyridine-2-carboxylic acid]: the concentration for half-maximal inhibition (IC50) lay in the range of 100 to 1000 nM.
`Cc1ccc2cccnc2c1S(=O)(=O)Nc1ccc(Cl)cc1C#Cc1ccc(C(=O)O)nc1` [Compound 363, 5-{2-[5-chloro-2-(7-methylquinoline-8-sulfonamido)phenyl]ethynyl}pyridine-2-carboxylic acid] displayed an IC50 of 1000 to 100000 nM.
As to `Cc1c(S(=O)(=O)Nc2ccccc2C#Cc2ccc(C(=O)O)nc2)ccc2ccccc12` [Compound 97, 5-{2-[2-(1-methylnaphthalene-2-sulfonamido)phenyl]ethynyl}pyridine-2-carboxylic acid], the half-inhibitory concentration (IC50) is 100 to 1000 nM.
Still for that read-out and setting: under `CC(C)Oc1ccnc2c(S(=O)(=O)Nc3ccccc3C#Cc3ccc(C(=O)O)nc3)cccc12` [Compound 349, 5-(2-{2-[4-(propan-2-yloxy)quinoline-8-sulfonamido]phenyl}ethynyl)pyridine-2-carboxylic acid] stands 100 to 1000 nM; under `COc1ccc(S(=O)(=O)Nc2ccccc2C#Cc2ccc(C(=O)O)cc2)c2ccccc12` [Compound 8, 4-{2-[2-(4-methoxynaphthalene-1-sulfonamido)phenyl]ethynyl}benzoic acid], 100 to 1000 nM.
Molecule `COc1ccccc1S(C)(=O)=Nc1ccccc1C#Cc1ccc(C(=O)O)nc1` (stereo not shown) [Compound 433, 5-[2-(2-{[(2-methoxyphenyl)(methyl)oxo-λ6-sulfanylidene]amino}phenyl)ethynyl] pyridine-2-carboxylic acid] displayed a 50% inhibitory concentration (IC50) of 1000 to 100000 nM.
`Cc1ccc2cccnc2c1S(=O)(=O)Nc1ccccc1C#Cc1ccc(C(=O)N2CCCCC2)nc1` [Compound 385, 7-Methyl-quinoline-8-sulfonic acid {2-[6-(piperidine-1-carbonyl)-pyridin-3-ylethynyl]-phenyl}-amide] came in with a half-maximal inhibitory concentration (IC50) of 1000 to 100000 nM.
The molecule `Cn1ccc2cccc(S(=O)(=O)Nc3ccccc3C#Cc3ccc(C(=O)O)nc3)c21` [Compound 296, 5-{2-[2-(1-methyl-1H-indole-7-sulfonamido)phenyl]ethynyl}pyridine-2-carboxylic acid] came in with a 50% inhibitory concentration (IC50) of 1000 to 100000 nM.
Still for that read-out and setting: under `O=C(O)c1ccc(C#Cc2ccccc2NS(=O)(=O)c2cccc(N3CCOCC3)c2)cn1` [Compound 105, 5-(2-{2-[3-(morpholin-4-yl)benzenesulfonamido]phenyl}-ethynyl)pyridine-2-carboxylic acid] stands 1000 to 100000 nM; under `O=C(O)c1ccc(C#Cc2cc(Cl)ccc2NS(=O)(=O)c2ccc(Cl)cc2)cn1` [Compound 280, 5-{2-[5-chloro-2-(4-chlorobenzene-sulfonamido)phenyl]ethynyl}pyridine-2-carboxylic acid], 1000 to 100000 nM; under `COc1cccc(-c2cccc(S(=O)(=O)Nc3ccccc3C#Cc3ccc(C(=O)O)nc3)c2)n1` [Compound 127, 5-(2-{2-[3-(6-methoxypyridin-2-yl)benzenesulfonamido]phenyl}-ethynyl)pyridine-2-carboxylic acid], 100 to 1000 nM.
The same measure, in the same setting: for `CCOc1cc(C#Cc2ccccc2NS(=O)(=O)c2c(C)ccc3cccnc23)cnc1C(=O)O` [Compound 188, 3-ethoxy-5-{2-[2-(7-methylquinoline-8-sulfonamido)phenyl]ethynyl}pyridine-2-carboxylic acid] the value was 100 to 1000 nM; for `COc1ccc(S(=O)(=O)Nc2ccc(Cl)cc2C#Cc2ccc(C(=O)O)nc2)c(C)c1C` [Compound 387, 5-[5-Chloro-2-(4-methoxy-2,3-dimethyl-benzenesulfonylamino)-phenylethynyl]-pyridine-2-carboxylic acid], 10 to 100 nM.
As for `CS(=O)(=Nc1ccccc1C#Cc1ccc(C(=O)O)nc1)c1ccccc1F` (stereo not shown) [Compound 437, 5-[2-(2-{[(2-fluorophenyl)(methyl)oxo-λ6-sulfanylidene]amino}phenyl)ethynyl] pyridine-2-carboxylic acid], the half-maximal inhibitory concentration (IC50) lay in the range of 1000 to 100000 nM.
On the same count and under the same terms, under `O=C(O)c1ccc(C#Cc2ccccc2NS(=O)(=O)c2ccc3ccccc3c2)cc1F` [Compound 14, 2-fluoro-4-{2-[2-(naphthalene-2-sulfonamido)phenyl]ethynyl}benzoic acid] stands 100 to 1000 nM; under `COc1cc(C(=O)O)ncc1C#Cc1ccccc1NS(=O)(=O)c1c(C)cc(OC)c2cccnc12` [Compound 372, 4-Methoxy-5-[2-(5-methoxy-7-methyl-quinoline-8-sulfonylamino)-phenylethynyl]-pyridine-2-carboxylic acid], 1 to 10 nM; under `Cc1cnc2c(S(=O)(=O)Nc3ccccc3C#Cc3ccc(C(=O)O)nc3)cccc2c1` [Compound 262, 5-[2-(3-Methyl-quinoline-8-sulfonyl-amino)-phenylethynyl]-pyridine-2-carboxylic acid], 100 to 1000 nM.
Still for that read-out and setting: for `COc1ccc(S(=O)(=O)Nc2ccc(C)cc2C#Cc2ccc(C(=O)O)nc2)c2ncccc12` [Compound 383, 5-[2-(5-Methoxy-quinoline-8-sulfonylamino)-5-methyl-phenylethynyl]-pyridine-2-carboxylic acid] the value was 1 to 10 nM.

The experiment is the same for the next values; noted with them: Table 3; group class A-D; the table does not say which assay or cell line ("the assays described above").
In turn, `O=CN(Cc1ccc2ncccc2c1)c1ccccc1C#Cc1ccc(C(=O)O)nc1` [Compound 205, trifluoroacetate] yielded an IC50 of 1000 to 100000 nM.

For the origin of these results see patent US12351570B2 (MERCK PATENT GMBH, priority 2018, dated 2025).
